In patent publication US10369165B2, “Composition containing active components of Dracocephalum moldavica L. against myocardial ischemia-reperfusion injury” (Nanjing Ruiying Runze Biopharmaceutical Technology Co., Inc., priority 2014, dated 2019):

Experiments:
[1] = tested on: rat primary cardiac myocytes; experiment: pH of culture supernatant of rat primary cardiac myocytes injured by nitrogen hypoxia/reoxygenation; type: cell-based; conditions: 30 μM; culture medium supernatant; hypoxia 6 h, reoxygenation 5 h
Protocol: Experiment method: Wistar ventricular myocytes of neonatal rat aged 2 d are isolated under asepsis condition, then the myocytes are digested with mixture of digestive enzymes (0.06% trypsin and 0.1% type II collagenase mixed in equal amount) for multiple times in a short time. Cardiac myocytes are purified using differential adhesion method. […] The cells are cultured for 24 hours, then the supernatant is discarded, and the cells are washed with PBS three times. All of the cells are classified into contrast group, hypoxia/reoxygenation injury group, hypoxia/reoxygenation model+compatible composition group. After pre-treatment for 24 h, all of the hypoxia/reoxygenation injury groups are placed in glucose-free Earle's solution which has been previously saturated with mixture of 95% N2+5% CO2 for 1 hour. The cells are cultured in hypoxic condition for 6 h at 37° C. in constant-temperature incubator introduced with the mixture of 95% N2+5% CO^2. Then the hypoxia treated cells are subjected to reoxygenation in normal condition for 5 h with the high glucose medium DMEM (containing 10% FBS) which has been previously saturated with mixture of 95% air+5% CO2. At the same time, the cells are incubated with compatible compositions. After treating the experimental groups of cells, the supernatant is collected; the pH of supernatant of culture medium is measured directly with pH meter.

[2] = tested on: rat primary cardiac myocytes; experiment: ATP, ADP, AMP content (HPLC) of rat primary cardiac myocytes injured by nitrogen hypoxia/reoxygenation; type: cell-based; conditions: 30 μM, cell lysate supernatant
Protocol: Experiment method: Wistar ventricular myocytes of neonatal rat aged 2 d are isolated under asepsis condition, then the myocytes are digested with mixture of digestive enzymes (0.06% trypsin and 0.1% type II collagenase mixed in equal amount) for multiple times in a short time. Cardiac myocytes are purified using differential adhesion method. […] The cells are cultured for 24 hours, then the supernatant is discarded, and the cells are washed with PBS three times. All of the cells are classified into contrast group, hypoxia/reoxygenation injury group, hypoxia/reoxygenation model+compatible composition group. After pre-treatment for 24 h, all of the hypoxia/reoxygenation injury groups are placed in glucose-free Earle's solution which has been previously saturated with mixture of 95% N2+5% CO2 for 1 hour. The cells are cultured in hypoxic condition for 6 h at 37° C. in constant-temperature incubator introduced with the mixture of 95% N2+5% CO2. Then the hypoxia treated cells are subjected to reoxygenation in normal condition for 5 h with the high glucose medium DMEM (containing 10% FBS) which has been previously saturated with mixture of 95% air+5% CO2. At the same time, the cells are incubated with compatible compositions. After treating the experimental groups of cells, the culture solution is discarded. The cells are washed once with pre-cooled PBS. 500 μl pre-cooled 50% perchlorate solution is added in each well. Pyrolysis of cells take place on ice for 5 min. The cells are scrapped, 600 μl of 2.5 mol/L Na2CO3 solution is added, and pH is adjusted to 6.5. Pyrolysis mixture is collected in centrifuge tube and centrifuged in 4° C. Content of supernatant is determined by HPLC. […] The content is determined with HPLC method. The equipment is LC-2010C quaternionic pump high performance liquid chromatogram, analytical column is Diamonsil C18 column (250 mm×4.6 mm, 5 μm), detection wavelength: 260 nm, mobile phase is 0.05M phosphate buffer (pH 6.5), detector is UV-vis detector. Flow-rate of column is 0.8 ml/min, sample size is 20 μl, and analytical time is 12 min, the data is processed using LCsolution chromatography workstation (Japan, […]).

[3] = tested on: rat primary cardiac myocytes; experiment: MTT cell activity of rat primary cardiac myocytes injured by hypoxia/reoxygenation; type: cell-based; conditions: 30 μM, 24 h pre-treatment, hypoxia 6 h, reoxygenation 5 h
Protocol: Wistar ventricular myocytes of neonatal rat aged 2 d are isolated under asepsis condition, then the myocytes are digested with mixture of digestive enzymes (0.06% trypsin and 0.1% type II collagenase mixed in equal amount) for multiple times in a short time. Cardiac myocytes are purified using differential adhesion method. […] The cells are cultured for 24 hours, then the supernatant is discarded, and the cells are washed with PBS three times. […] After pre-treatment for 24 h, all of the hypoxia/reoxygenation injury groups are placed in glucose-free Earle's solution which has been previously saturated with mixture of 95% N2+5% CO2 for 1 hour. The cells are cultured in hypoxic condition for 6 h at 37° C. in constant-temperature incubator introduced with the mixture of 95% N2+5% CO2. Then the hypoxia treated cells are subjected to reoxygenation in normal condition for 5 h with the DMEM high glucose medium (containing 10% FBS) which has been previously saturated with mixture of 95% air+5% CO2. At the same time, the cells are incubated with the administration of compatible compositions. After treating the experimental groups of cells, 20 μg/ml MTT is added, and each experimental group is cultured for 4 h, then MTT is solved in 150 μl DMSO. OD of each well is read by ELISA meter at wavelength of 490 nm, and activity of cells is determined.

[4] = tested on: myocardial ischemia-reperfusion injury (MIRI); conditions: previous studies; cited from earlier work
[5] = tested on: rat primary cardiac myocytes; experiment: LDH leak of rat primary cardiac myocytes injured by nitrogen hypoxia/reoxygenation; type: cell-based; conditions: 30 μM; culture medium supernatant; hypoxia 6 h, reoxygenation 5 h
Protocol: Experiment Method: Wistar ventricular myocytes of neonatal rat aged 2 d are isolated under asepsis condition, then the myocytes are digested with mixture of digestive enzymes (0.06% trypsin and 0.1% type II collagenase mixed in equal amount) for multiple times in a short time. Cardiac myocytes are purified using differential adhesion method. […] The cells are cultured for 24 hours, then the supernatant is discarded, and the cells are washed with PBS three times. All of the cells are classified into contrast group, hypoxia/reoxygenation injury group, hypoxia/reoxygenation model+compatible composition group. After pre-treatment for 24 h, all of the hypoxia/reoxygenation injury groups are placed in glucose-free Earle's solution which has been previously saturated with mixture of 95% N2+5% CO2 for 1 hour. The cells are cultured in hypoxic condition for 6 h at 37° C. in constant-temperature incubator introduced with mixture of 95% N2+[…]. Then the hypoxia treated cells are subjected to reoxygenation in normal condition for 5 h with the high glucose medium DMEM (containing 10% FBS) which has been previously saturated with mixture of 95% air+[…]. At the same time, the cells are incubated with compatible compositions. After treating the experimental groups of cells, the supernatant is collected; the content of LDH leak in supernatant of culture medium is measured according to the steps of LDH kit.

[6] = tested on: rat H9c2 cardiac myocytes; experiment: MTT cell activity of H9c2 cardiac myocytes after hypoxia/reoxygenation injury; type: cell-based; conditions: total 30 μM, 12 h preincubation, hypoxia 6 h, reoxygenation 5 h
Protocol: Rat cardiac myocytes H9c2 in logarithmic growth phase are taken. After digestion, the cells are resuspended with DMEM medium (containing 10% FBS), then inoculated into 96-well plate and normally cultured in incubator of 37° C. and 5% CO2. After entering logarithmic growth phase, the cells are divided into following groups for experiment: (1) normal culture group (Control group): during the experiment, cells are normally cultured in incubator of 37° C. and 5% CO2; (2) […] Model group (Model group): normal culture fluid for the experimental cells in logarithmic growth phase is replaced with glucose-free Earle's solution which has been previously saturated with mixture of 95% N2+5% CO2 for 1 hour. Then the cells are cultured in hypoxic condition for 6 h at 37° C. in constant-temperature incubator introduced with the mixture of 95% N2+5% CO2. Then the hypoxia treated cells are subjected to reoxygenation in normal condition for 5 h with the high glucose medium DMEM (containing 10% FBS) which has been previously saturated with mixture of 95% air+5% CO2. (3) pre-treated compatible group of luteilon, kaempferol and luteolin-7-O-glucoside: H9c2 cells are preincubated for 12 h with luteilon, kaempferol and luteolin-7-O-glucoside combined in different ratios. Then, the normal culture solution is replaced with glucose-free Earle's solution which has been previously saturated with mixture of 95% N2+5% CO2 for 1 hour. After anoxic treatment for 6 h with N2 anoxic tank, the cells are subjected to reoxygenation for 5 h in normal culture condition with normal culture solution; meanwhile the cells are incubated with the administration of each compatible drug. After treatment, 20 μg/ml MTT is added, and each experimental group is cultured for 4 h, then MTT is solved in 150 μl DMSO. OD of each well is read by ELISA meter at wavelength of 490 nm, and activity of cells is determined.

PTEN = PTEN (Homo sapiens, UniProt P60484); conditions: previous studies; cited from earlier work
PTEN, sequence (P60484 whole entry, species assumed): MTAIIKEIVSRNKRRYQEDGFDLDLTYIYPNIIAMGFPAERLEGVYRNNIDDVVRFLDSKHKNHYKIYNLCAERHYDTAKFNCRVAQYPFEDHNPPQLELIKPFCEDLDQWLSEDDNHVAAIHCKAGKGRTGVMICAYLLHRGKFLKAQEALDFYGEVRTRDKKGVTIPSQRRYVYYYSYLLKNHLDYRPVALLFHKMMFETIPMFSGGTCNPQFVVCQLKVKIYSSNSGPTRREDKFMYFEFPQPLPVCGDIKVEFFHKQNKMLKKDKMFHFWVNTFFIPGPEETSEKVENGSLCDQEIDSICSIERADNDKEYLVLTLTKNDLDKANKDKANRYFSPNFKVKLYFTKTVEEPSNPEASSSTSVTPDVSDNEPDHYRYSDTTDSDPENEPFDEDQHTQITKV

SHP-2 = target: T1, SHP-2 (Homo sapiens, UniProt Q06124); conditions: previous studies; cited from earlier work
T1 sequence (Q06124 1-593): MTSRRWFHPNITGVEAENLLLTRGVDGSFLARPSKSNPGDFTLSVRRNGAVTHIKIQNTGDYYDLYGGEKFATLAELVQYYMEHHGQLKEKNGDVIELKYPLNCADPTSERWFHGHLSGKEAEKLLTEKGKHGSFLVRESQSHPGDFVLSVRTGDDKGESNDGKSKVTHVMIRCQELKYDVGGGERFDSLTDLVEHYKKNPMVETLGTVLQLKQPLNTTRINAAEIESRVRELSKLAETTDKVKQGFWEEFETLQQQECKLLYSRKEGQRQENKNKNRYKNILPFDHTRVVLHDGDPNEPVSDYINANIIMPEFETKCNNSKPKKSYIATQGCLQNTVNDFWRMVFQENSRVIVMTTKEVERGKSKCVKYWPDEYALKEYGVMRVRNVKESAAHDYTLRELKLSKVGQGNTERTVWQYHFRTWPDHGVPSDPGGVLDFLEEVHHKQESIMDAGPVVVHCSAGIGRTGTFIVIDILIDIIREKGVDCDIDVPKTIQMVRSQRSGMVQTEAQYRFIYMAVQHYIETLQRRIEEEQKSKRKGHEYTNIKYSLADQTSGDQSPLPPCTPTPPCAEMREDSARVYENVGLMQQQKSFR

Row | SMILES | pH of supernatant [1] | ADP [2] [µg/mL] | AMP [2] [µg/mL] | ATP [2] [µg/mL] | protection rate of cell activity (%) [3] [%] | function of myocardial contraction [4] | mitochondrial membrane potential [4] | Leak rate (%) of LDH [5] [%] | protection rate of cell activity (%) [6] [%] | level of cytoplasmic Ca2+ [4] | oxygen free radical damage [4] | heart rate [4] | mitochondrial Ca2+ [4] | activity of PTEN (PTEN) | activity of SHP-2 (SHP-2)
1 | O=c1cc(-c2ccc(O)c(O)c2)oc2cc(O)cc(O)c12 [Luteilon, luteolin] | 7.11 | 15.38 | 7.59 | 102.88 | 68.08 | improve | increase | 122.37 | 81.93 ± 7.18 | – | – | – | – | – | –
2 | O=c1cc(-c2ccc(O)c(O)c2)oc2cc(O[C@@H]3O[C@H](CO)[C@@H](O)[C@H](O)[C@H]3O)cc(O)c12 [Luteolin-7-0-glucoside, luteolin-7-O-glucoside] | 7.08 | 17.12 | 8.97 | 69.45 | 71.17 | – | – | 115.18 | 78.57 ± 4.54 | reduce | prevent | – | – | – | –
3 | O=c1c(O)c(-c2ccc(O)cc2)oc2cc(O)cc(O)c12 [Kaempferol, kaempferol] | 7.10 | 17.15 | 7.15 | 84.72 | 69.22 | – | – | 111.25 | 76.97 ± 6.67 | – | – | maintain | reduce | inhibit | inhibit
